Experimental data taken from US10828308B2, “Treatment of non-alcoholic fatty liver disease or non-alcoholic steatohepatitis with delayed-release 6-mercaptopurine” (Hadasit Medical Research Services and Development Ltd., priority 2015, dated 2020).

Test system: STAM model of non-alcoholic steatohepatitis (NASH mice)
Test: In vivo efficacy study of DR6-MP in STAM model of non-alcoholic steatohepatitis
Design: species or system C57BL/6 mice
Conditions: 10 mg/kg orally once daily from 6 to 9 weeks of age
From the text: Pathogen-free 14 day-pregnant C57BL/6 mice were obtained. NASH was established in male mice by a single subcutaneous injection of 200 τg streptozotocin after birth and feeding with a high fat diet ad libitum after 4 weeks of age (day 28±2). Mice were randomized into 5 groups of 8 mice at 6 weeks of age (day 42±2), the day before the start of treatment. Group 1 (Normal): Eight normal mice were fed with normal diet ad libitum without any treatment until 9 weeks of age. Group 2 (Vehicle): Eight NASH mice were orally administered vehicle [0.5% Methyl cellulose] in a volume of 10 mL/kg once daily from 6 to 9 weeks of age. […]
Mice in all groups were sacrificed for the following assays at 9 weeks of age: • Measurement of organ weight • Individual liver weight was measured. • Liver-to-body weight ratio was calculated. • Biochemical assays • Serum ALT and AST levels were measured. • Liver triglyceride contents were quantified. • Histological analyses for liver sections (according to a routine method). • HE staining and estimation of NAFLD Activity score. • Sirius-red staining and estimation of fibrosis area. • Immunochemical staining for F4/80 and estimation of the percentage of inflammation area. • Gene expression assays using total RNA from the liver. • Real-time RT-PCR analyses were performed for TNF-α, INF-γ, IL-10, MCP-1, CCR2, α-SMA, TGF-β, Collagen Type 1, Collagen Type 3, TIMP-1.

## CCCc1nc2c(C)cc(-c3nc4ccccc4n3C)cc2n1Cc1ccc(-c2ccccc2C(=O)O)cc1 [Telmisartan]
  fibrosis area (Sirius red-positive area) compared with the Vehicle group: significant decreases in fibrosis area
Liver sections at 9 weeks
  Sirius red-positive area (%) (mean ± SD): 0.74 ± 0.21%
